Test results reported in PMC5738580, “Design, Synthesis, and Cytotoxicity Evaluation of Novel Griseofulvin Analogues with Improved Water Solubility” (International Journal of Medicinal Chemistry, 2017).
In brackets after ≈: the same amount, converted by molar mass. Where two headings read alike, the source gives them in different places.

How the values were obtained:
[1] = Equilibrium solubility in buffer solutions (UV); format: physicochemical; details: thermodynamic from solid, 37 °C, read-out: Mean solubility ± SD
Method: UV measurements were performed on single beam spectrophotometer (Jenway, model 6305, UK). Equilibrium solubility was performed through using digital precise shaking water bath (DAIHAN Scientific Co., model WSB-45, Republic of Korea).
A powdered sample (20 mg), of each of the tested compounds [3, 5–10, and griseofulvin 1], was accurately weighed and dissolved in 100 ml of methanol to prepare 200 μg/ml stock solution. Compound solutions (20 μg/ml) in the investigated media (buffer solutions of pH 1.2 and 6.8) were prepared from stock solution after appropriate dilution. The prepared solutions were scanned in the UV-Vis region (200–800 nm) to determine the wavelength of maximum absorption (λmax) in each medium.
Solutions containing different concentrations of the investigated compound were prepared from stock solution after appropriate dilution with the investigated buffer solutions. The UV absorbance of the prepared sample solutions was measured at λmax of the investigated compound using the investigated buffer solution as a reference solution (blank). The determined absorbance values were plotted versus the corresponding concentrations to construct the standard calibration curves.
Equilibrium solubility of each of the tested compounds was determined by placing an excess amount of the compound in stoppered glass volumetric flask containing 10 ml of the investigated buffer solution. The solutions were shaken at a rate of (40 ± 2) stroke/minute in a thermostatically controlled water bath at 37 ± 0.5°C for 24 hours to ensure equilibrium. Samples of 2 ml were withdrawn from each test solution, filtered immediately, and assayed spectrophotometrically at the determined λmax of the investigated compound.

HCT116 cells [2] = test: SRB cytotoxicity assay, HCT116; format: cell-based, human; details: for IC50: Homo sapiens, HCT-116, read-out: IC50 against HCT116
Method: (§1) Breast carcinoma MCF-7 and colorectal cancer HCT116 cell lines were used in this study. Cancer cell lines were obtained frozen in liquid nitrogen (−180°C) from the American Type Culture Collection (ATCC). The tumor cell line was maintained by serial subculturing in RPMI 1640 media containing 10% […] at the National Cancer Institute, Cairo, Egypt.
(§2) Cytotoxicity assay was carried out according to the reported literature, where the sensitivity of the MCF-7 and HCT116 cell lines to the tested compounds and their combination was determined by the SRB assay. In brief, cells were seeded at a density of 3 × 10^3 cells/well in 96-well microtiter plates. Cells were left to attach for 24 hours before incubation with drugs. Next, they were treated with different concentrations of the tested compounds (10, 20, 30, 40, 50, and 100 μM).
(§3) Control cells containing 200 μl/well of DMSO (0.1% v/v) were used similarly. At the end of incubation, cells were fixed with 20% trichloroacetic acid (TCA), stained with 0.4% Sulforhodamine B (SRB), and rinsed with 1% acetic acid. The bound protein stain was solubilized with Tris base (10 mM, pH 10.5) and the optical density (OD) of each well was measured spectrophotometrically at 570 nm using ELISA microplate reader (TECAN, Sunrise^TM, Germany). The fraction of cell survival was calculated as follows.
(§4) Survival fraction = OD treated/OD control. […] Each experiment was repeated 3 times.

MCF-7 cells [3] = test: SRB cytotoxicity assay, MCF-7; format: cell-based; details: Homo sapiens, MCF7, read-out: IC50 against MCF-7
Method: as §1, §2, §3, §4

centrosomal clustering = system: centrosomal clustering; set-up: method as in PMID 22191585, PMID 19402668; details: cited from earlier work
MCF-7 cells [4] = test: Combination of compound 9 with tamoxifen (SRB, combination index); format: cell-based, human
Method: (§5) Estrogen-dependent breast cancer represents 70% of all types of breast cancer. […] Combination therapy is used in order to prevent resistance or recurrence. […] Similar study was performed for evaluation of combination effect of compound 9 with 5-fluorouracil on HCT116 cells proliferation (Figure 1).
as §2
(§6) CI was employed to determine whether the compounds interacted synergistically, additively, or antagonistically. […] If “CI” is less than 1, the effect of combination is synergistic, whereas if CI = 1 or >1, the effect is additive or antagonistic, respectively.

HCT116 cells [5] = test: Combination of compound 9 with 5-fluorouracil (SRB, combination index); format: cell-based, human
Method: as §5, §2, §6

MCF-7 cells [6] = test: Apoptosis, Annexin V-FITC/PI flow cytometry; format: cell-based, human; details: MCF-7, 21.5 μM, 48 hrs
Method: In order to study the effect of compound 9 on apoptosis, MCF-7 cells were treated with compound 9 (21.5 μM) for 48 hrs and harvested for fluorescence microscopic and flow cytometric analysis of Annexin V-FITC/propidium iodide (PI) staining. […] The percentage of apoptotic cells was 2.65% in control untreated MCF-7 cells and 31.75% after treatment with compound 9.
In brief, untreated and treated MCF-7 cells (21.5 μM of 9) were harvested and resuspended in calcium buffer at a concentration of 1 × 10^6 cells/ml. Annexin V-FITC (10 μl) was added to 100 μl of cells. The tubes were incubated for 20 min in the dark. The cells were then washed with calcium buffer and propidium iodide (10 μl) was added to each tube and incubated for at least 10 min on ice. Samples were analyzed by FACScan flow cytometer (Becton-Dickinson, San Jose, CA, USA) using CellQuest software (Becton-Dickinson, San Jose, CA).

[7] = buffer solution pH 1.2, simulated gastric fluid, pH 1.2 buffer solution
[8] = buffer solution pH 6.8, aqueous buffer, pH 6.8 buffer solution

| Structure (SMILES) | solubility at 24 h [1, 7] [µg/mL] | solubility at 24 h [1, 8] [µg/mL] | IC50 (HCT116 cells [2]) [µM] | IC50 (MCF-7 cells [3]) [µM] | increase in activity as a centrosome clustering inhibitor compared to 1 (centrosomal clustering) [fold] | combination index (CI) (MCF-7 cells [4]; half of IC50 of compound 9 + quarter of IC50 of tamoxifen) | combination index (CI) (MCF-7 cells [4]; quarter of IC50 of compound 9 + half of IC50 of tamoxifen) | increase in activity over 5-fluorouracil against HCT116 (HCT116 cells [2]) [fold] | combination index (CI) (HCT116 cells [5]; half of IC50 of compound 9 + quarter of IC50 of 5-fluorouracil) | combination index (CI) (HCT116 cells [5]; quarter of IC50 of compound 9 + half of IC50 of 5-fluorouracil) | percentage of apoptotic cells (MCF-7 cells [6]) [%] |
| --- | --- | --- | --- | --- | --- | --- | --- | --- | --- | --- | --- |
| COc1cc(OC)c2c(c1Cl)O[C@]1(C2=O)C(OCc2ccccc2)=CC(=NOCC(=O)O)C[C@H]1C (mixture of isomers) [Compound 5, 2-(((E/Z)-[(2S,6′R)2′-Benzyloxy-7-chloro-4,6-dimethoxy-6′-methyl-3-oxo-3H-spiro[benzofuran-2,1′-cyclohex[2′]en]-4′-ylidene]amino)oxy) Acetic Acid] | 14.3 ± 0.42 | 27.94 ± 0.27 | > 100 | 20.7 | – | – | – | – | – | – | – |
| COC1=CC(=NNC(N)=O)C[C@@H](C)[C@]12Oc1c(Cl)c(OC)cc(OC)c1C2=O (mixture of isomers) [Compound 6, (E/Z)-2-((2S,6′R)-7-Chloro-2′,4,6-trimethoxy-6′-methyl-3-oxo-3H-spiro[benzofuran-2,1′-cyclohex[2′]en]-4′-ylidene)hydrazine-1-carboxamide] | 14.86 ± 0.12 | 14.5 ± 0.39 | 87.8 | 55.9 | – | – | – | – | – | – | – |
| COC1=CC(=NNC(=O)c2ccncc2)C[C@@H](C)[C@]12Oc1c(Cl)c(OC)cc(OC)c1C2=O (mixture of isomers) [Compound 8, (E/Z)-N′-((2S,6′R)-7-Chloro-2′,4,6-trimethoxy-6′-methyl-3-oxo-3H-spiro[benzofuran-2,1′-cyclohex[2′]en]-4′-ylidene)isonicotinic Acid Hydrazide] | 29.1 ± 0.72 | 12.5 ± 0.54 | 39.8 | 25.3 | – | – | – | – | – | – | – |
| O=c1[nH]cc(F)c(=O)[nH]1 [5-Fluorouracil, reference compound] | – | – | 19.5 | – | – | – | – | – | – | – | – |
| COC1=CC(=O)C[C@@H](C)[C@]12Oc1c(Cl)c(OC)cc(OC)c1C2=O [Compound 1, Griseofulvin] | 12.3 ± 0.29 (≈ 34.9 µM) | 12.4 ± 0.26 (≈ 35.1 µM) | 35.5 | 69 | – | – | – | – | – | – | – |
| COc1cc(OC)c2c(c1Cl)O[C@]1(C2=O)C(OCc2ccccc2)=CC(=O)C[C@H]1C [Compound 3, (2S,6′R)-2′-Benzyloxy-7-chloro-4,6-dimethoxy-6′-methyl-3H-spiro[benzofuran-2,1′-cyclohex[2′]en]-3,4′-dione, reference compound] | 11.1 ± 0.37 (≈ 26 µM) | 11.1 ± 0.82 (≈ 25.9 µM) | 35.8 | 32.8 | 25 | – | – | – | – | – | – |
| COC1=CC(=NNC(=N)N)C[C@@H](C)[C@]12Oc1c(Cl)c(OC)cc(OC)c1C2=O [Compound 7, 2-((2S,6′R)-7-Chloro-2′,4,6-trimethoxy-6′-methyl-3-oxo-3H-spiro[benzo-furan-2,1′-cyclohex[2′]en]-4′-ylidene)hydrazine-1-carboximidamide] | – | – | 85.6 | 54.5 | – | – | – | – | – | – | – |
| COc1cc(OC)c2c(c1Cl)OC1(C2=O)C(OCc2ccccc2)=CC(=NNC(N)=O)CC1C [Compound 9, 2-((2S,6′R)-2′-Benzyloxy-7-chloro-4,6-dimethoxy-6′-methyl-3-oxo-3H-spiro[benzofuran-2,1′-cyclohex[2′]en]-4′-ylidene)hydrazine-1-carboxamide] | 14 ± 0.31 (≈ 28.7 µM) | 13.78 ± 0.07 (≈ 28.4 µM) | 10.5 | 21.5 | – | 0.25 ± 0.03 | 0.17 ± 0.06 | 2 | 0.37 ± 0.07 | 0.2 ± 0.06 | 31.75 |
| COc1cc(OC)c2c(c1Cl)OC1(C2=O)C(OCc2ccccc2)=CC(=NNC(=N)N)CC1C [Compound 10, 2-((2S,6′R)-2′-Benzyloxy-7-chloro-4,6-dimethoxy-6′-methyl-3-oxo-3H-spiro[benzofuran-2,1′-cyclohex[2′]en]-4′-ylidene)hydrazine-1-carboximidamide] | 26.7 ± 0.57 (≈ 55 µM) | 16.6 ± 0.58 (≈ 34.2 µM) | 8.39 | 14.5 | – | – | – | 2 | – | – | – |
